Laboratory results taken from ChEMBL document CHEMBL4229466, “Conformational Propensity and Biological Studies of Proline Mutated LR Peptides Inhibiting Human Thymidylate Synthase and Ovarian Cancer Cell Growth” (J Med Chem, 2018).
pIC50: −log10 of the molar value. Active and inactive are the calls of the source. No cut-off for these calls is given here. Non-standard residues stand in square brackets, D forms with d. Residues, ends and D or L forms follow the SMILES beside them.

Tests used:
IGROV-1 [1] = test: Effect on TS protein expression in human IGROV1 cells by Western blot analysis; format: functional, cell-based
IGROV-1 [2] = test: Effect on HSP90 protein expression in human IGROV1 cells by Western blot analysis; format: functional, cell-based
IGROV-1 [3] = test: Effect on DHFR protein expression in human IGROV1 cells by Western blot analysis; format: functional, cell-based
IGROV-1 [4] = test: Downregulation of TRAP1 protein levels in human IGROV1 cells by Western blot analysis; format: functional, cell-based
C13 = test: Cytotoxicity against human C13 cells after 72 hrs; format: functional, cell-based; conditions: C13, 72 h
[5] = biological target: Thymidylate synthase (Homo sapiens) (UniProt P04818); test: Inhibition of thymidylate synthase in human IGROV1 cell lysate using [5-3H]dUMP as substrate assessed as decrease in residual activity at 5 uM after 60 mins by liquid scintillation counting analysis relative to control
Chain of Thymidylate synthase (Homo sapiens) (P04818 2-313 limits assumed): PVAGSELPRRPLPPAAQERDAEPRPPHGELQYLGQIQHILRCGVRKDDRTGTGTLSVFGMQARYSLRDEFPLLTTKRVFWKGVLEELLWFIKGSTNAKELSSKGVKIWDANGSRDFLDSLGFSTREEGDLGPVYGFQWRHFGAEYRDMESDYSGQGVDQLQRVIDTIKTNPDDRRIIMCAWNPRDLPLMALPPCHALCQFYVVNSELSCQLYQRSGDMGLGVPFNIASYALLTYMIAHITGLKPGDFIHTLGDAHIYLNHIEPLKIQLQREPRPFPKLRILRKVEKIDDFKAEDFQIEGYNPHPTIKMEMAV

IGROV-1 [6] = test: Cytotoxicity against human IGROV1 cells after 72 hrs; format: functional, cell-based; conditions: IGROV-1, 72 h
2008 = test: Cytotoxicity against human 2008 cells; format: functional, cell-based

Molecule | Activity (IGROV-1 [1]) | Activity (IGROV-1 [2]) | Activity (IGROV-1 [3]) | Activity (IGROV-1 [4]) | pIC50 (C13) | inhibition [5] | pIC50 (IGROV-1 [6]) | pIC50 2008
Nc1nc2[nH]cc(CCc3ccc(C(=O)N[C@@H](CCC(=O)O)C(=O)O)cc3)c2c(=O)[nH]1 | Active | Active | Active | – | – | – | – | –
CC(C)C[C@H](NC(=O)[C@@H](CCC(N)=O)NC(=O)[C@H](CS)NC(=O)[C@H](CO)NC(=O)[C@@H](N)CC(C)C)C(=O)N[C@@H](Cc1ccc(O)cc1)C(=O)N[C@@H](CCC(N)=O)C(=O)N[C@@H](CCCNC(=N)N)C(=O)O (H-LSC[dQ]LYQR-OH) | – | – | – | Active | – | – | – | –
O=c1[nH]cc(F)c(=O)[nH]1 [FLUOROURACIL] | – | – | – | – | 4.92 | Active | 4.97 | 5.22
H-LSCPLYQR-OH | Active | Active | Active | Active | 5.09 to 5.45 | 25% | 4.92 to 5.36 | 5.80 to 6.02
H-LSCQLYPR-OH | – | – | – | – | 5.09 to 5.45 | > 30% | 5.36 | 5.80 to 6.02
H-LSCQLYQR-OH | – | – | – | – | 5.02 | – | 5.09 | 5.34
H-LSPQLYQR-OH | Active | Active | Active | – | 5.09 to 5.45 | 25% | 5.21 | 5.80 to 6.02
